{"source": "ChEMBL document CHEMBL5380817", "about": "“Discovery of LL-K8-22: A Selective, Durable, and Small-Molecule Degrader of the CDK8-Cyclin C Complex” (J Med Chem, 2023)", "key": {"[1]": {"biological_target": "Cyclin-dependent kinase 1 (Homo sapiens) (UniProt P06493)", "sequence (P06493 whole entry, looked up)": "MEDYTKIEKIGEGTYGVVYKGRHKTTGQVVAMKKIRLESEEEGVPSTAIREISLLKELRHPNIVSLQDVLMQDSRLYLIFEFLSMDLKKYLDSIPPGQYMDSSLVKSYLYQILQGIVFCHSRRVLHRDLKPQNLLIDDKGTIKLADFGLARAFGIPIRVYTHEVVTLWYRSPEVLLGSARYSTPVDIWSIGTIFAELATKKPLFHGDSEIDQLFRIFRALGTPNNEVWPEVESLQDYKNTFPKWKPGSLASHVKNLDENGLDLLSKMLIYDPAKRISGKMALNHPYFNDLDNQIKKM", "assay": "Hydrophobic-tagging degradation activity at CDK1 in human MDA-MB-468 cells assessed as downregulation of CDK1 mRNA level at 1.1 to 10 uM incubated for 24 hrs by RT-qPCR analysis", "type": "cell-based", "conditions": "dose 1.1-10 µM"}, "[2]": {"biological_target": "T1, CDK8/Cyclin C (Homo sapiens) (UniProt P49336+P24863)", "assay": "Hydrophobic-tagging degradation activity at CDK8/Cyclin C in human MDA-MB-468 cells assessed as protein degradation at 3 uM incubated for 24 hrs in presence of 17-AAG by Western blotting analysis", "type": "cell-based"}, "[3]": {"biological_target": "T1, CDK8/Cyclin C (Homo sapiens)", "assay": "Hydrophobic-tagging degradation activity at CDK8/Cyclin C in human MDA-MB-468 cells assessed as downregulation of TERT gene expression level at 4 uM incubated for 24 hrs by qPT-PCR analysis", "type": "cell-based"}, "[4]": {"biological_target": "Cyclin-dependent kinase 7 (Homo sapiens) (UniProt P50613)", "sequence (P50613 whole entry)": "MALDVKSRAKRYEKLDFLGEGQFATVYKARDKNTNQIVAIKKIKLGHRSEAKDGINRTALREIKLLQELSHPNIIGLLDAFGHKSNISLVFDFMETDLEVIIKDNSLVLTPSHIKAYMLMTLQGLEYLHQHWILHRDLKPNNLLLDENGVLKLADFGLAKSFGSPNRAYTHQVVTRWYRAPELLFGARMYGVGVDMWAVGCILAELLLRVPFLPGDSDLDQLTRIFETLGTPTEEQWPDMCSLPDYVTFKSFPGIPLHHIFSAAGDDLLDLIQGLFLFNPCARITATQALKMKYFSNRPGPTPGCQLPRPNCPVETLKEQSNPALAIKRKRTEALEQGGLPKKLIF", "assay": "Hydrophobic-tagging degradation activity at CDK7 in human MDA-MB-468 cells assessed as degradation of CDK7 at 0.625 to 10 uM incubated for 24 hrs by Western blotting analysis", "type": "cell-based", "conditions": "dose 0.625-10 µM"}, "[5]": {"biological_target": "T1, CDK8/Cyclin C (Homo sapiens)", "assay": "Hydrophobic-tagging degradation activity at CDK8/Cyclin C in human MDA-MB-468 cells assessed as downregulation of STAT1 phosphorylation at Ser727 residue at 2 to 8 uM incubated for 24 hrs by Western blotting analysis", "type": "cell-based", "conditions": "dose 2-8 µM"}, "[6]": {"biological_target": "Cyclin-dependent kinase 4 (Homo sapiens) (UniProt P11802)", "sequence (P11802 whole entry)": "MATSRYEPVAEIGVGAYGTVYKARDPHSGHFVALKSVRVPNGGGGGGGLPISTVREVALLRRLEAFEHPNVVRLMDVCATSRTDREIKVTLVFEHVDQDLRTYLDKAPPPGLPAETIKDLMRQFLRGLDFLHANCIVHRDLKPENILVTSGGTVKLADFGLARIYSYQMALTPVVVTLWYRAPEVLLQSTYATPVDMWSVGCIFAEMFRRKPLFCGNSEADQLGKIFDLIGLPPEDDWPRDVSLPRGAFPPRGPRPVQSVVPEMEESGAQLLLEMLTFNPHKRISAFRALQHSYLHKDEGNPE", "assay": "Hydrophobic-tagging degradation activity at CDK4 in human MDA-MB-468 cells assessed as degradation of CDK4 at 0.625 to 10 uM incubated for 24 hrs by Western blotting analysis", "type": "cell-based", "conditions": "dose 0.625-10 µM"}, "[7]": {"biological_target": "T1, CDK8/Cyclin C (Homo sapiens)", "assay": "Hydrophobic-tagging degradation activity at CDK8/Cyclin C in human MDA-MB-468 cells assessed as protein degradation at 0.38 to 12 uM incubated for 48 hrs by Western blotting analysis", "type": "cell-based", "conditions": "dose 0.38-12 µM"}, "[8]": {"biological_target": "T2, Cyclin-dependent kinase 8 (Homo sapiens, UniProt P49336)", "T2 sequence (P49336 whole entry)": "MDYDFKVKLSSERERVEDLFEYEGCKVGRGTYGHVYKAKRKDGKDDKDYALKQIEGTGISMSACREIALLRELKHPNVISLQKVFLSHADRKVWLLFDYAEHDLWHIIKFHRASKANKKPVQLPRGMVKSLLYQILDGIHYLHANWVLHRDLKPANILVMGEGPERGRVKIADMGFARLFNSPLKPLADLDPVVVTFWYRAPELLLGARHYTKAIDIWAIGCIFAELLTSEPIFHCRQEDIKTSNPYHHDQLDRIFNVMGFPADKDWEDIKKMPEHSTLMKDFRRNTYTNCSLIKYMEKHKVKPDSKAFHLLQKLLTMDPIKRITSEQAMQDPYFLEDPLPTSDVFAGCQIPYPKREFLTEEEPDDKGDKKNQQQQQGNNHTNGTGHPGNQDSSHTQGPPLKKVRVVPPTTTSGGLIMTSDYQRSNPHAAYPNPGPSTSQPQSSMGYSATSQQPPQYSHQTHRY", "assay": "Hydrophobic-tagging degradation activity at CDK8 in human MDA-MB-468 cells assessed as downregulation of EAPP protein expression at 5 uM incubated for 12 hrs by DIA-based proteomic analysis", "type": "cell-based"}, "[9]": {"biological_target": "T2, Cyclin-dependent kinase 8", "assay": "Hydrophobic-tagging degradation activity at CDK8 in human MDA-MB-468 cells assessed as degradation of CDK8 incubated for 48 hrs by Western blotting analysis", "type": "cell-based"}, "[10]": {"biological_target": "T1, CDK8/Cyclin C (Homo sapiens)", "assay": "Hydrophobic-tagging degradation activity at CDK8/Cyclin C (unknown origin) assessed as protein degradation at 0.625 to 10 uM incubated for 48 hrs by Western blotting analysis", "type": "protein-complex assay", "conditions": "dose 0.625-10 µM"}, "[11]": {"biological_target": "T2, Cyclin-dependent kinase 8", "assay": "Hydrophobic-tagging degradation activity at CDK8 in human MDA-MB-468 cells assessed as downregulation of SMAD2 protein expression at 5 uM incubated for 12 hrs by DIA-based proteomic analysis", "type": "cell-based"}, "[12]": {"biological_target": "T1, CDK8/Cyclin C (Homo sapiens)", "assay": "Hydrophobic-tagging degradation activity at CDK8/Cyclin C in human MDA-MB-468 cells assessed as downregulation of STAT1 phosphorylation at Ser727 residue at 4 uM incubated for 24 hrs by Western blotting analysis", "type": "cell-based"}, "MDA-MB-468 [13]": {"tested_on": "MDA-MB-468", "assay": "Inhibition of colony formation in human MDA-MB-468 cells assessed as reduction in cell colony number at 1.25 to 20 uM incubated for 3 days by crystal violet staining based assay", "type": "functional", "conditions": "dose 1.25-20 µM, time 3.0 day"}, "[14]": {"biological_target": "T1, CDK8/Cyclin C (Homo sapiens)", "assay": "Hydrophobic-tagging degradation activity at CDK8/Cyclin C in human MDA-MB-468 cells assessed as downregulation of d EAPP expression level at 4 uM incubated for 24 hrs by proteomic analysis", "type": "cell-based"}, "MDA-MB-231": {"tested_on": "MDA-MB-231", "assay": "Antiproliferative activity against human MDA-MB-231 cells assessed as inhibition of cell proliferation incubated for 4 days by Celltiter glo luminescent assay", "type": "functional, cell-based", "conditions": "MDA-MB-231, 96 h"}, "Cyclin-C": {"biological_target": "Cyclin-C (Homo sapiens, UniProt P24863)", "sequence (P24863 whole entry)": "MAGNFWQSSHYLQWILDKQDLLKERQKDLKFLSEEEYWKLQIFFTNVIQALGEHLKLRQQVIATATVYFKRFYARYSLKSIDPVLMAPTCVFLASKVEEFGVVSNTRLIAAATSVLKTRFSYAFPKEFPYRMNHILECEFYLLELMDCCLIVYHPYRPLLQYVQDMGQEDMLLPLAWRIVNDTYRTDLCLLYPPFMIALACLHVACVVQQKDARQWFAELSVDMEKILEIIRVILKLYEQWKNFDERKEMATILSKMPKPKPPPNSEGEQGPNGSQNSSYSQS", "assay": "PROTAC activity at Cyclin C in human MDA-MB-468 cells assessed as degradation of Cyclin C incubated for 48 hrs by Western blotting analysis", "type": "cell-based"}, "[15]": {"biological_target": "Cyclin-dependent kinase 6 (Homo sapiens) (UniProt Q00534)", "sequence (Q00534 whole entry)": "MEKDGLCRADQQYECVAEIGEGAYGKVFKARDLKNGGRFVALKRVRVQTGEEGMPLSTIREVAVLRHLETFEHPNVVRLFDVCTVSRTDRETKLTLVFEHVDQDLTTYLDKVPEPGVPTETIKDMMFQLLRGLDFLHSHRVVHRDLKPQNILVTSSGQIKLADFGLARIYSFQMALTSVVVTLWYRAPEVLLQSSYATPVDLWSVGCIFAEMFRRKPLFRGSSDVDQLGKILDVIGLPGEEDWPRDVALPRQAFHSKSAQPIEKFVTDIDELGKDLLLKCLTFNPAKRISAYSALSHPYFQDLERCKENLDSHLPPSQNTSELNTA", "assay": "PROTAC activity at CDK6 in human MDA-MB-468 cells assessed as degradation of CDK6 at 0.625 to 10 uM incubated for 24 hrs by Western blotting analysis", "type": "cell-based", "conditions": "dose 0.625-10 µM"}, "HCT-116 [16]": {"tested_on": "HCT-116", "assay": "Antiproliferative activity against human HCT-116 cells assessed as reduction in cell viability incubated for 4 days by Celltiter glo luminescent assay", "type": "functional, cell-based", "conditions": "time 4.0 day"}, "[17]": {"biological_target": "T1, CDK8/Cyclin C (Homo sapiens)", "assay": "Hydrophobic-tagging degradation activity at CDK8/Cyclin C in human MDA-MB-468 cells assessed as protein degradation at 1.1 to 10 uM incubated for 48 hrs by Western blotting analysis", "type": "cell-based", "conditions": "dose 1.1-10 µM"}, "[18]": {"biological_target": "T1, CDK8/Cyclin C (Homo sapiens)", "assay": "Hydrophobic-tagging degradation activity at CDK8/Cyclin C in human MDA-MB-468 cells assessed as protein degradation at 1.1 to 10 uM incubated for 24 hrs in presence of MG132 by Western blotting analysis", "type": "cell-based", "conditions": "dose 1.1-10 µM"}, "HCT-116 [19]": {"tested_on": "HCT-116", "assay": "Antiproliferative activity against human HCT-116 cells assessed as inhibition of cell proliferation incubated for 4 days by Celltiter glo luminescent assay", "type": "functional, cell-based", "conditions": "HCT-116, 96 h"}, "[20]": {"biological_target": "T1, CDK8/Cyclin C (Homo sapiens)", "assay": "Hydrophobic-tagging degradation activity at CDK8/Cyclin C in human MDA-MB-468 cells assessed as downregulation of RET gene expression level at 4 uM incubated for 24 hrs by qPT-PCR analysis", "type": "cell-based"}, "[21]": {"biological_target": "Cyclin-dependent kinase 5 (Homo sapiens) (UniProt Q00535)", "sequence (Q00535 whole entry, looked up)": "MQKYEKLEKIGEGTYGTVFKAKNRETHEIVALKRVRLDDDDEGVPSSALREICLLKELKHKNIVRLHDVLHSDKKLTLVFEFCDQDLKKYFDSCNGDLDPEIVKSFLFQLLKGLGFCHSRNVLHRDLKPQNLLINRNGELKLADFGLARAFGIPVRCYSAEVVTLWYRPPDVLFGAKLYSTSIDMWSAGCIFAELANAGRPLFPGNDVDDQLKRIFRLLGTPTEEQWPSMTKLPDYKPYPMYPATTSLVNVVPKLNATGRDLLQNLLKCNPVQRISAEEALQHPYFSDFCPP", "assay": "PROTAC activity at CDK5 in human MDA-MB-468 cells assessed as degradation of CDK5 at 0.625 to 10 uM incubated for 24 hrs by Western blotting analysis", "type": "cell-based", "conditions": "dose 0.625-10 µM"}, "MDA-MB-468 [22]": {"tested_on": "MDA-MB-468", "assay": "Antiproliferative activity against human MDA-MB-468 cells assessed as inhibition of cell proliferation incubated for 4 days by Celltiter glo luminescent assay", "type": "functional, cell-based", "conditions": "MDA-MB-468, 96 h"}, "[23]": {"biological_target": "T1, CDK8/Cyclin C (Homo sapiens)", "assay": "Hydrophobic-tagging degradation activity at CDK8/Cyclin C in human MDA-MB-468 cells assessed as downregulation of STAT1 phosphorylation at Ser727 residue at 4 uM incubated for 24 hrs followed by compound washout and measured after 24 hrs by Western blotting analysis", "type": "cell-based"}, "MDA-MB-468 [24]": {"tested_on": "MDA-MB-468", "assay": "Antiproliferative activity against human MDA-MB-468 cells assessed as reduction in cell viability incubated for 4 days by Celltiter glo luminescent assay", "type": "functional, cell-based", "conditions": "time 4.0 day"}, "[25]": {"biological_target": "T2, Cyclin-dependent kinase 8", "assay": "Hydrophobic-tagging degradation activity at CDK8 in human MDA-MB-468 cells assessed as downregulation of RAP2C protein expression at 5 uM incubated for 12 hrs by DIA-based proteomic analysis", "type": "cell-based"}, "Cyclin-T1 (Homo sapiens)": {"biological_target": "Cyclin-T1 (Homo sapiens) (UniProt O60563)", "sequence (O60563 whole entry)": "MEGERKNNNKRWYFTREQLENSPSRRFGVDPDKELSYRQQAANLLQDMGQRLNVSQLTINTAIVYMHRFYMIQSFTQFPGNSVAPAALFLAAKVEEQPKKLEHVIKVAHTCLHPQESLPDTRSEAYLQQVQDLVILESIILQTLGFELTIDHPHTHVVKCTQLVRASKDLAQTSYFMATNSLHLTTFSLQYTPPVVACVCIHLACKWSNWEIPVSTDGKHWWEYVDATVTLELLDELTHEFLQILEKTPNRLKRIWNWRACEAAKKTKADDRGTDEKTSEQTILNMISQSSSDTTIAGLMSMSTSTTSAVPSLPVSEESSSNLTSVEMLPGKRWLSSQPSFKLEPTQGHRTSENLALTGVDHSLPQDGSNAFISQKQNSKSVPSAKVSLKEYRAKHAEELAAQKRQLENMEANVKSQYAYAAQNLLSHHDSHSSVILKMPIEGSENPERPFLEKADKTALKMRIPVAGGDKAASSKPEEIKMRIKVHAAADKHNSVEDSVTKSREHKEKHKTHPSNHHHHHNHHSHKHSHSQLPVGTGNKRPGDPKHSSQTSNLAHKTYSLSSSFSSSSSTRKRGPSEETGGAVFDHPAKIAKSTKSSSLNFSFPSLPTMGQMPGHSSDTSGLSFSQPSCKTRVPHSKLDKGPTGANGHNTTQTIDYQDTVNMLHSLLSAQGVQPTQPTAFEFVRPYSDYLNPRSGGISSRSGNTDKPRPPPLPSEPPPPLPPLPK", "assay": "PROTAC activity at Cyclin T1 in human MDA-MB-468 cells assessed as degradation of Cyclin T1 at 0.625 to 10 uM incubated for 24 hrs by Western blotting analysis", "type": "cell-based", "conditions": "dose 0.625-10 µM"}, "Cyclin-H (Homo sapiens)": {"biological_target": "Cyclin-H (Homo sapiens) (UniProt P51946)", "sequence (P51946 whole entry)": "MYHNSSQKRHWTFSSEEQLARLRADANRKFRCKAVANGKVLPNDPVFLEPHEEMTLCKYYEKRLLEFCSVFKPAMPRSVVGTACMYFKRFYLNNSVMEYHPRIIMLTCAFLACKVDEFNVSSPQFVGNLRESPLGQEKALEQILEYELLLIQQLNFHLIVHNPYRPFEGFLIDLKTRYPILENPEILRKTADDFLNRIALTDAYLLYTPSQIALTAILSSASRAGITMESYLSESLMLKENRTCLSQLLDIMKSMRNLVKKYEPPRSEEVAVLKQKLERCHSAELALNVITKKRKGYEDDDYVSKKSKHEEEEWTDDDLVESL", "assay": "PROTAC activity at Cyclin H in human MDA-MB-468 cells assessed as degradation of Cyclin H at 0.625 to 10 uM incubated for 24 hrs by Western blotting analysis", "type": "cell-based", "conditions": "dose 0.625-10 µM"}}, "note": "Calls of active or inactive are those of the source. The rule behind the calls is not given here.", "data": [{"molecule": "O=C(Cn1cc(-c2ccc(-c3cncc4ccccc34)cc2)cn1)N1CCN(CCCC23CC4CC(CC(C4)C2)C3)CC1", "values": [{"measurement": "Activity", "setting": "[1]", "value": "Active"}, {"measurement": "Activity", "setting": "[2]", "value": "Active"}, {"measurement": "Activity", "setting": "[3]", "value": "Active"}, {"measurement": "Activity", "setting": "[4]", "value": "inactive"}, {"measurement": "Activity", "setting": "[5]", "value": "Active"}, {"measurement": "Activity", "setting": "[6]", "value": "inactive"}, {"measurement": "Activity", "setting": "[7]", "value": "Dose-Dependent Effect"}, {"measurement": "Activity", "setting": "[8]", "value": "Active"}, {"measurement": "DC50", "setting": "[9]", "value": 2.52, "unit": "µM"}, {"measurement": "Activity", "setting": "[10]", "value": "Active"}, {"measurement": "Activity", "setting": "[11]", "value": "Active"}, {"measurement": "Activity", "setting": "[12]", "value": "Active"}, {"measurement": "inhibition", "setting": "MDA-MB-468 [13]", "value": "Active"}, {"measurement": "Activity", "setting": "[14]", "value": "Active"}, {"measurement": "IC50", "setting": "MDA-MB-231", "value": 6.22, "unit": "µM"}, {"measurement": "DC50", "setting": "Cyclin-C", "value": 2.64, "unit": "µM"}, {"measurement": "Activity", "setting": "[15]", "value": "inactive"}, {"measurement": "Activity", "setting": "HCT-116 [16]", "value": "Active"}, {"measurement": "Activity", "setting": "[17]", "value": "Active"}, {"measurement": "Activity", "setting": "[18]", "value": "inactive"}, {"measurement": "IC50", "setting": "HCT-116 [19]", "value": 5.87, "unit": "µM"}, {"measurement": "Activity", "setting": "[20]", "value": "Active"}, {"measurement": "Activity", "setting": "[21]", "value": "inactive"}, {"measurement": "IC50", "setting": "MDA-MB-468 [22]", "value": 5.73, "unit": "µM"}, {"measurement": "inhibition", "setting": "[23]", "value": 70, "unit": "%"}, {"measurement": "Activity", "setting": "MDA-MB-468 [24]", "value": "Active"}, {"measurement": "Activity", "setting": "[25]", "value": "Active"}, {"measurement": "Activity", "setting": "Cyclin-T1 (Homo sapiens)", "value": "inactive"}, {"measurement": "Activity", "setting": "Cyclin-H (Homo sapiens)", "value": "inactive"}]}]}
